Measured values from patent US20180214463A1, “USE OF PHYTIC ACID OR THE SALTS THEREOF, ALONE OR COMBINED WITH B6 VITAMERS, FOR PREVENTING THE FORMATION OF ADVANCED GLYCATION END-PRODUCT” (UNIVERSITAT DE LES ILLES BALEARS, priority 2015, published 2018).

How the values were obtained:
formation of AGEs = experiment: In vitro formation of AGEs (ribose, arginine, lysine, Fe3+; fluorescence at 7 days); assay type: biochemical; conditions: 37° C., vs control without inhibitors
Protocol: In an in vitro study, the inhibiting effect of phytate alone or in combination with pyridoxamine on the formation of AGEs was compared (see FIG. 2). […] In these studies, the formation of AGEs was induced by incubating a reaction mixture containing ribose (200 mM) (taken as the model reducing sugar), 1 mM arginine, 2 mM lysine (as glycation targets), and 2 μM Fe^3 (as a glycation catalyzer) with various concentrations of phytate and pyridoxamine alone or in combination at 37° C. for 7 days (in a 0.2 M phosphate buffer). The quantity of AGEs present at 7 days was determined by fluorescence.

diabetic patients = experiment: Clinical trial of phytate (phytin) in diabetic patients: plasma HbA1c and AGEs, urinary phytate; assay type: in vivo, human

Row | Structure (SMILES) | inhibition of the formation of AGEs (formation of AGEs; 1 μM inhibitor alone) [%] | inhibition of the formation of AGEs (formation of AGEs; 2.5 μM inhibitor alone) [%] | decrease in plasma AGEs (diabetic patients; 1,140 mg phytate (as phytin) daily for 3 months, 33 diabetic patients, p<0.001) [%] | decrease in plasma glycated hemoglobin (HbA1c) (diabetic patients; 1,140 mg phytate (as phytin) daily for 3 months, 33 diabetic patients, p=0.017) [%] | increase in the urinary excretion of phytate (diabetic patients; 1,140 mg phytate (as phytin) daily for 3 months, p=0.026) [%] | plasma levels of HbA1c and AGEs after withdrawal (diabetic patients; three months without phytate, after three months of consuming it) | inhibition of the formation of AGEs (formation of AGEs; 2 μM inhibitor alone) [%]
1 | Cc1ncc(CO)c(CN)c1O [pyridoxamine] | 17.5 | 28.2 | – | – | – | – | –
2 | O=P(O)(O)O[C@H]1[C@H](OP(=O)(O)O)[C@@H](OP(=O)(O)O)[C@H](OP(=O)(O)O)[C@@H](OP(=O)(O)O)[C@H]1OP(=O)(O)O [phytate, myo-inositol-hexaphosphate] | 12.7 | – | ~25.1 | ~3.9 | 33.6 | returning to levels similar to the baselines | 19.9
